# From article PMC7337102 (ACS infectious diseases, 2019)
# How the values were obtained:
# Assay type in all cases: biochemical
# Eis_R37G = Eis_R37G (Mycobacterium tuberculosis, UniProt P9WFK7, R37G)
# Eis_R37A = Eis_R37A (Mycobacterium tuberculosis, UniProt P9WFK7, R37A)
# Eis_D26A = Eis_D26A (Mycobacterium tuberculosis, UniProt P9WFK7, D26A)
# Eis_S83G = Eis_S83G (Mycobacterium tuberculosis, UniProt P9WFK7, S83G)
# Eis_W36R = Eis_W36R (Mycobacterium tuberculosis, UniProt P9WFK7, W36R)
# Eis_F84A = Eis_F84A (Mycobacterium tuberculosis, UniProt P9WFK7, F84A)
# Eis_M65A = Eis_M65A (Mycobacterium tuberculosis, UniProt P9WFK7, M65A)
# Eis_L63A = Eis_L63A (Mycobacterium tuberculosis, UniProt P9WFK7, L63A)
# Eis_W36A = Eis_W36A (Mycobacterium tuberculosis, UniProt P9WFK7, W36A)
smiles,measurement,setting,value
"NC[C@H]1O[C@H](O[C@H]2[C@H](O)[C@@H](O[C@H]3O[C@H](CO)[C@@H](O)[C@H](N)[C@H]3O)[C@H](N)C[C@@H]2N)[C@H](O)[C@@H](O)[C@@H]1O [KAN, kanamycin]",Km,Eis_R37G,696 ± 44 µM
same,kcat,Eis_R37G,0.215 ± 0.0017 s⁻¹
same,Km,Eis_R37A,971 ± 166 µM
same,kcat,Eis_R37A,0.158 ± 0.005 s⁻¹
same,Km,Eis_D26A,1280 ± 360 µM
same,increase in the Km value of KAN from that for the wild-type enzyme,Eis_D26A,2.3 fold
same,kcat,Eis_D26A,0.235 ± 0.0417 s⁻¹
same,Km,Eis_S83G,432 ± 48 µM
same,increase in the catalytic efficiency of the enzyme,Eis_S83G,2 fold
same,kcat,Eis_S83G,0.365 ± 0.013 s⁻¹
same,Km,Eis_W36R,352 ± 77 µM
same,decrease in the maximum turnover rate,Eis_W36R,3.3 fold
same,increase of the binding affinity to KAN,Eis_W36R,1.6 fold
same,kcat,Eis_W36R,0.0733 ± 0.0067 s⁻¹
same,Km,Eis_F84A,569 ± 94 µM
same,kcat,Eis_F84A,0.142 ± 0.012 s⁻¹
same,Km,Eis_M65A,247 ± 19 µM
same,increase in the catalytic efficiency from that of the wild-type enzyme,Eis_M65A,4.6 fold
same,kcat,Eis_M65A,0.495 ± 0.015 s⁻¹
same,"maximum turnover rate, fold higher",Eis_M65A,2 fold
same,Km,Eis_L63A,484 ± 93 µM
same,kcat,Eis_L63A,0.323 ± 0.025 s⁻¹
same,Km,Eis_W36A,556 ± 148 µM
same,kcat,Eis_W36A,0.138 ± 0.0167 s⁻¹
